Results taken from US20220356174A1, “PYRIDIN-2-ONE COMPOUNDS USEFUL AS SMARCA2 ANTAGONISTS” (Epizyme, Inc., priority 2018, published 2022).
Marks after values point to notes of the source that are not given here.

Test system: A549 subcutaneous xenograft
Assay: Efficacy study in subcutaneous A549 xenograft model (tumor volume, tumor weight, TGI)
Type: in vivo, BALB/c nude mice
Conditions: for Volume-based TGI(%) / Weight-based TGI(%): Day 21, P < 0.001
Protocol: The efficacy of compound 82c was studied in vivo for the treatment of A549 subcutaneous xenograft model in BALB/c nude mice. Seventy-five BALB/c nude female mice were injected cell A549 at 1×10^7 per mouse.
Fifty mice were selected and assigned into five groups using randomized block design based upon their tumor volumes and 10 mice per group. The 5 groups were treated p.o. with vehicle (0.5% NaCMC 0.1% Tween pH4), compound 82c 5 mg/kg BIDx21, 12.5 mg/kg BIDx10/QDx11, 25 mg/kg BIDx7/QDx14 and 50 mg/kg QDx10/3 days off/30 mg/kg QDx8.
All mice from 12.5 mg/kg BID were adjusted from BID to QD from treatment Day 11 until to the end of the study. #36˜#40 mice from group 25 mg/kg BID were compound administration holiday due to mice body weight loss. All mice from group 25 mg/kg BID were adjusted from BID to QD from treatment Day 8. All mice from group 50 mg/kg QD were compound administration holiday from Day 11 to Day 13 due to mice body weight loss and this group was adjusted from 50 mg/kg to 30 mg/kg until the end of the study.
Tumor Inoculation. Each mouse was inoculated subcutaneously at the right flank with A549 tumor cells (1×10^7 cells/mouse) in 0.2 mL of base media (F12K) for tumor development. The treatments were started when the tumor size reached 126.94 mm^3 for the tumor efficacy study (Day 14 post inoculation). Fifty tumor-bearing mice were block randomized into 5 groups with 10 mice in each.
Tumor Measurements and Endpoints. The major endpoint was tumor growth delay or cure. Tumor size was measured twice weekly in two dimensions using a caliper, and the volume was expressed in mm^3 using the formula: V=0.5 a×b^2 where a and b were the long and short diameters of the tumor, respectively. The tumor size was then used for calculations of T/C (%) values. T/C (%) was calculated according to the following equation: T/C (%)=TRTV/CRTV×[…] TRTV=TVtreatment-Dn/TVtreatment-D1, CRTV=TVcontrol-Dn/TVcontrol-D1, T/C (%)<42%, it was considered to be effective. The tumor size was then used for calculations of TGI (%) values. TGI (%) was calculated according to the following equation: TGI (%)=(1−(TVTreatment/Dx−TVTreatment/D1)/(TVControl/Dx−TVControl/D1))×100%, TGI[…]58 means this medicine is effective. The tumor weight was then used for calculations of TGI (%) values. TGI (%) was calculated according to the following equation: TGI (%)=(1−TWTreatment/TWControl)×100%
Statistical Analysis. Summary statistics, including mean and the standard error of the mean (SEM), were provided for the tumor volumes of each group at each time point. Statistical analyses of difference in tumor volumes among the groups were conducted on Day 21 after the last dose. Statistical analysis of difference in tumor volume and tumor weight among the groups was conducted. All data was analyzed using GraphPad Prism software. P<0.05 was considered to be statistically significant. A two-way ANOVA combined with Bonferroni post-test was performed to compare tumor volumes among vehicle and all treatment groups. A one-way ANOVA combined with Dunnett's Multiple Comparison Test to compare tumor weight among vehicle and all treatment groups.

[1] = 50 mg/kg QD×10, 3 days off, 30 mg/kg QD×8, p.o.

## N#Cc1cc(C(=O)Nc2cc(F)c(=O)n(CC(F)F)c2)sc1C(F)(F)F [Compound 82c, 4-cyano-N-[1-(2,2-difluoroethyl)-5-fluoro-6-oxopyridin-3-yl]-5-(trifluoromethyl)thiophene-2-carboxamide]
5 mg/kg BID×21, p.o.
  Tumor Volume (mm^3), Day 21: 737.75 ± 78.79 mm^3
  Tumor Weight (g), Day 21: 0.773 ± 0.052 g
  Volume-based TGI(%): 57.01* %
  Weight-based TGI(%): 47.23* %
12.5 mg/kg BID×10 QD×11, p.o.
  Tumor Volume (mm^3), Day 21: 579.14 ± 59.39 mm^3
  Tumor Weight (g), Day 21: 0.609 ± 0.063 g
  Volume-based TGI(%): 68.31* %
  Weight-based TGI(%): 58.44* %
25 mg/kg BID×7 QD×14, p.o.
  Tumor Volume (mm^3), Day 21: 469.53 ± 70.97 mm^3
  Tumor Weight (g), Day 21: 0.509 ± 0.077 g
  Volume-based TGI(%): 75.87* %
  Weight-based TGI(%): 65.26* %
[1]
  Tumor Volume (mm^3), Day 21: 461.87 ± 60.61 mm^3
  Tumor Weight (g), Day 21: 0.496 ± 0.058 g
  Volume-based TGI(%): 76.56* %
  Weight-based TGI(%): 66.17* %
